One assay concerns the target T1, human recombinant A2AAR (Homo sapiens, UniProt P29274).
T1 construct: expressed in transfected cells; membrane preparation
The assay can be described thus: Radioligand binding at human A2AAR ([3H]NECA displacement, CHO cell membranes). How it is done:
Most of the compounds were also evaluated at A2BARs in a functional study using the GloSensor cAMP assay. […] In the case of A2BARs, Ki-values were calculated from IC50-values determined by the inhibition of NECA-stimulated adenylyl cyclase activity.
Preparation of membranes: Cell membranes for binding assays were prepared mechanically detaching the cells from the petri and suspending them in a cold hypotonic buffer (5 mM Tris/HCl, 2 mM EDTA, pH 7.4). The cell suspension was homogenized (Ultra-Turrax, 2 × 15 s at maximum speed) and the homogenate centrifuged for 10 min (4 °C) to 1000× g. […] The amount of the protein suspension was determined according to the […] using the BCA Protein Assay Kit (Pierce), frozen in liquid nitrogen, and stored at −80 °C.
(§1) Binding assays: The dissociation constants of the radioligand (KD) were calculated through saturation assays, while the dissociation constants of the compounds under study (Ki) were determined by competition experiments. All binding data were calculated by nonlinear regression curves using the software GraphPad Prism 5 (GraphPad Software, San Diego, CA, USA). The increasing concentrations of the radioligand saturation binding ([^3H]-CCPA for the A1 receptor subtype, [^3H]-NECA for the A2A receptor subtype, and [^3H]-HEMADO for the A3 receptor) subtype were incubated in a total volume of 250 μL containing 0.2 U/mL of Ado deaminase (ADA) and 12 micrograms of membrane proteins in the specific buffer. In competition experiments for the A1 receptor subtype, each compound was added at increasing concentrations, to the well containing 1 nM of [^3H]-CCPA, to a final volume of 200 μL. The samples were left to incubate for 3 h at room temperature, filtered in a filter 96-well plate (UniFilter GF/C, Perkin-Elmer Life and Analytical Science, Boston, MA) using the FilterMate Cell Harvester (Perkin-Elmer), and washed 3 times with cold distilled water. After drying the filter plate at 40 °C for 30′, they 20 μL of scintillating liquid (Microscint-20, Perkin-Elmer) was added to each well, and then the radioactivity was quantized with the MicroBeta2 Plate Counter (Perkin-Elmer). The conditions for binding experiments at A2A and A3 receptor subtypes were essentially the same as for the A1AR using [^3H]-NECA (N-ethylcarboxyamideAdo) at a concentration of 10 nM and [^3H]-HEMADO (2-(1-hexyne)-N^6-methylAdo) at a concentration of 1 nM as radioligands, respectively. The samples were incubated with 12 micrograms of protein for 3 h at room temperature and filtered as described above.
(§2) The non-specific binding was determined in the presence of 1 mM theophylline for the A1AR, or 100 µM R-PIA (N^6-(1-methyl-2-phenylethyl)Ado) for the A2A and A3 receptors.

Another assay concerns the target T2, A2BAR (Homo sapiens, UniProt P29275).
T2 construct: expressed in transfected cells
T2 sequence (P29275 1-332): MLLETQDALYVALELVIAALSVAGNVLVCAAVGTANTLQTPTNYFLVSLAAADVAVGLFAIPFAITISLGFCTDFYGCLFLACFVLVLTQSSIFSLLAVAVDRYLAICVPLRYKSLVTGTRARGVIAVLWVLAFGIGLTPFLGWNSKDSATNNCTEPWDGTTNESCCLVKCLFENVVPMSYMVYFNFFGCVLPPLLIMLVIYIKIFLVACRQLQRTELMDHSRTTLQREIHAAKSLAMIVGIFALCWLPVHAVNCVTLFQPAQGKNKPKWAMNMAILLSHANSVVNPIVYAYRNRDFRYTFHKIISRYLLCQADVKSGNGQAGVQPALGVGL
The assay can be described thus: Functional study at A2BAR (GloSensor cAMP assay; inhibition of NECA-stimulated adenylyl cyclase activity). The assay is classed as cell-based. The following applies: Ki calculated from IC50 of inhibition of NECA-stimulated adenylyl cyclase activity, CHO cells. How it is done:
(§3) The affinities of the newly synthesized compounds 7–13 and 17–21 were determined in binding studies at human recombinant A1, A2A, and A3 ARs, stably transfected in Chinese hamster ovary (CHO) cells, using [^3H]CCPA (2-chloro-N^6-cyclopentylAdo), [^3H]NECA (5′-N-ethylcarboxamidoAdo), and [^3H]HEMADO (2-hexynyl-N^6-methylAdo) as respective radioligands. Most of the compounds were also evaluated at A2BARs in a functional study using the GloSensor cAMP assay. The results are reported in Table 1 as Ki values in nM (± standard errors). In the case of A2BARs, Ki-values were calculated from IC50-values determined by the inhibition of NECA-stimulated adenylyl cyclase activity.

The next assay addresses T3, human recombinant A3AR (Homo sapiens, UniProt P0DMS8).
T3 construct: expressed in transfected cells; membrane preparation
T3 sequence (P0DMS8 1-318): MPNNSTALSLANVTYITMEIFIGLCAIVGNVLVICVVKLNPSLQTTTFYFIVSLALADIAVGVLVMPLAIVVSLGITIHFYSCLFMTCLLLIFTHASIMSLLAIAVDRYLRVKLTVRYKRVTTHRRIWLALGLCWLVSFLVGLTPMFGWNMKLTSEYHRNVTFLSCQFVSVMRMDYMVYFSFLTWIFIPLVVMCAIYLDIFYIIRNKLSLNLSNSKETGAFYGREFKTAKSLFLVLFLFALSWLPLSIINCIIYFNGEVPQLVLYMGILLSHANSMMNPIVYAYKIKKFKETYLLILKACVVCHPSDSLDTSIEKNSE
As to the kind of experiment: Radioligand binding at human A3AR ([3H]HEMADO displacement, CHO cell membranes). The following applies: displacement of [3H]HEMADO, n = 3–5, means ± standard errors. How it is done:
as §3
Cell culture: The Chinese hamster ovary cells (CHO) stably transfected with the desired ARs were grown in DMEM/F12 medium containing 10% FBS (fetal bovine serum), 100 U/mL penicillin, 100 µg/mL streptomycin, 2.5 μg/mL amphotericin B, 1 mM sodium pyruvate, 0.1 mg/mL genetecina (G418), and incubated at 37 °C in a gaseous mixture of 5% CO2: […].
Preparation of membranes: Cell membranes for binding assays were prepared mechanically detaching the cells from the petri and suspending them in a cold hypotonic buffer (5 mM Tris/HCl, 2 mM EDTA, pH 7.4). The cell suspension was homogenized (Ultra-Turrax, 2 × 15 s at maximum speed) and the homogenate centrifuged for 10 min (4 °C) to 1000× g. The supernatant was subsequently centrifuged for 30 min (4 °C) at 100,000× g and the pellet containing the membrane proteins was re-suspended in a specific buffer for each receptor subtype (A1: 50 mM Tris/HCl, pH 7.4; A2A: 50 mM Tris/HCl, 10 mM MgCl2, pH 7.4; A3: 50 mM Tris/HCl, 10 mM MgCl2, 1 mM EDTA, pH 8.25). The amount of the protein suspension was determined according to the […] using the BCA Protein Assay Kit (Pierce), frozen in liquid nitrogen, and stored at −80 °C.
as §1, §2

One may read the Ki as a measure of affinity in units of concentration, obtained from inhibition or displacement.

T1 sequence (P29274 whole entry): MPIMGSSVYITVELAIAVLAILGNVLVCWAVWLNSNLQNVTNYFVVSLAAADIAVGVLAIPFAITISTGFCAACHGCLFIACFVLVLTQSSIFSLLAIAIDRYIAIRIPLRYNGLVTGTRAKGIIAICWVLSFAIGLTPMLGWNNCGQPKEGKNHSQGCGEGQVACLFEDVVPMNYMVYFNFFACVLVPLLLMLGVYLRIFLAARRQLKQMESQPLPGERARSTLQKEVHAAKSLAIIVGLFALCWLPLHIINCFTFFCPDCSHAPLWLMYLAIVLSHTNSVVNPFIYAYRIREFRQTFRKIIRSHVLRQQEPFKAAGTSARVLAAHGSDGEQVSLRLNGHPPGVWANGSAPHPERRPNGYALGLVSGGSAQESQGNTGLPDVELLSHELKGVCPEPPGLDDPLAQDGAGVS

For the molecule `CCn1c(-c2ccco2)nc2c(N)nc(NCCc3ccc(O)cc3)nc21` [compound 13, 4-(2-((6-Amino-9-ethyl-8-(furan-2-yl)-9H-purin-2-yl)amino)ethyl)phenol], at human recombinant A2AAR (displacement of [3H]NECA, CHO membranes, n = 3–5, means ± standard errors), the Ki amounted to 1.8 nM. For the same molecule, on human recombinant A2AAR (ratio of Ki values), the “selectivity A1/A2A” value is on record as 28, the “selectivity A2B/A2A” value was 796 and the “selectivity A3/A2A” value is recorded as 7. In addition, at A2BAR, the Ki was 1430 nM. Further, the Ki on human recombinant A3AR was 12 nM.

The values above are taken from paper PMC9032385, “A2A Adenosine Receptor Antagonists: Are Triazolotriazine and Purine Scaffolds Interchangeable?” (Molecules, 2022).
